Earlier results as cited in patent US20120289492A1, “METHODS OF TREATING MITOCHONDRIAL DISORDERS USING METALLOPORPHYRINS” (priority 2009, published 2012).

What was measured:
[1] = safety studies in mice, monkeys and rats; phase 1 in amyotrophic lateral sclerosis patients; cited from earlier work
CD-1 Sod2−/− mice = conditions: cited from earlier work

Structure (SMILES)	serious adverse events [1]	neurodegeneration (CD-1 Sod2−/− mice)	spongiform encephalopathy (CD-1 Sod2−/− mice)	cardiomyopathy (CD-1 Sod2−/− mice)
CCN1C=CN(CC)C1=C1C2=NC(=C(c3n(CC)cc[n+]3CC)C3=NC(=C(c4n(CC)cc[n+]4CC)c4ccc([n-]4)C(c4n(CC)cc[n+]4CC)=C4C=CC1=N4)C=C3)C=C2.[Cl-].[Cl-].[Cl-].[Cl-].[Cl-].[Mn+3] [AEOL10150]	No serious adverse events have been found	–	–	–
[Cl-].[Mn+3].[O-]c1ccccc1C=NCCN=Cc1ccccc1[O-] [EUK8]	–	ameliorated	ameliorated	–
COc1cccc(C=NCCN=Cc2cccc(OC)c2[O-])c1[O-].[Cl-].[Mn+3] [EUK134]	–	ameliorated	ameliorated	–
O=C(O)c1ccc(/C2=C3\C=CC(=N3)/C(c3ccc(C(=O)O)cc3)=c3/cc/c4[n]3[Mn]([Cl])[n]3c2ccc3/C(c2ccc(C(=O)O)cc2)=C2/C=CC(=N2)\C=4c2ccc(C(=O)O)cc2)cc1 [MnTBAP, manganese tetrakis 5, 10, 15, 20 . . . porphyrin]	–	but not neurodegeneration	–	ameliorated
